Laboratory results reported in publication PMC11284790, “Targeting Myeloperoxidase Ameliorates Gouty Arthritis: A Virtual Screening Success Story” (Journal of Medicinal Chemistry, 2024).
Like-named read-outs stand apart in the source and are kept apart here.

Tests used:
Human leukocyte MPO [1] = target: T1, Human leukocyte MPO (Homo sapiens, UniProt P05164); experiment: MPO peroxidatic activity assay (AmplexRed oxidation); assay type: biochemical; set-up: Human leukocyte MPO (EC 1.7.1.11) was purchased from Planta Natural Products; purchased Planta Natural Products (Vienna, Austria); host or cells: human leukocytes
T1 sequence (P05164 279-745 limits assumed): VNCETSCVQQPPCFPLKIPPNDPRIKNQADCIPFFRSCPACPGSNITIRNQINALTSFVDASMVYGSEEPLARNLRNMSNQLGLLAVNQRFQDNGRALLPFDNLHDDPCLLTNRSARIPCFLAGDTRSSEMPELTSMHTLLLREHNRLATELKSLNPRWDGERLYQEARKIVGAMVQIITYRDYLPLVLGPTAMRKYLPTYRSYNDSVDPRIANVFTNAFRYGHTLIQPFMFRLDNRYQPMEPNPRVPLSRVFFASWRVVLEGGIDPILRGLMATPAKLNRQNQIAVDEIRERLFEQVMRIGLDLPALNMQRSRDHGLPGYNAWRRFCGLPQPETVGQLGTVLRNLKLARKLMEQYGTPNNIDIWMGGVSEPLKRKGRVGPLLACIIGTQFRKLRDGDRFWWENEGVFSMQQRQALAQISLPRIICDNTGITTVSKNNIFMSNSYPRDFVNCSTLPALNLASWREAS
T1 sequence (P05164 165-278 limits assumed): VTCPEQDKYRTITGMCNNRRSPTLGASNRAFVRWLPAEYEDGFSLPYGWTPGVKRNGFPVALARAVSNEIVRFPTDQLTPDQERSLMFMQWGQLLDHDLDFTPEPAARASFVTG
Description: MPO peroxidase activity was kinetically monitored using the artificial peroxidase substrate AmplexRed, which is oxidized to resorufin and can be detected by fluorescence.[34] Reactions were carried out in phosphate buffer (50 mM, pH 7.4), MPO (100 pM), cetyltrimethylammonium chloride (0.03%), diethylenetriaminepentaacetic acid (100 μM), AmplexRed (30 μM), and compounds (20 μM in 0.3% DMSO). The reaction was started by adding 2 μM hydrogen peroxide. The reaction product was assessed by fluorescence at λex = 530 and λem = 580 nm. The initial velocity was calculated by the slope of the linear regression in the first minutes of reaction. Inhibition is represented as a percentage of the control (vehicle).

[2] = system: human peripheral blood neutrophils; experiment: Cellular production of HOCl, PMA-activated peripheral blood neutrophils; assay type: cell-based; settings: 20 μM compound, 100 nM PMA, 1 h
Description: Human neutrophils were obtained from healthy individuals as previously described.[24] The experiments were approved by the local ethics committee (CEPSH-ICB 1435/18).
(§1) Measurement of HOCl production by 1 × 10^6 dHL-60 or neutrophils was carried out in PBS (10 mM Na2HPO4, 2 mM KH2PO4, 0.5 mM MgCl2, 1 mM CaCl2, 140 mM NaCl, 5.5 mM dextrose, 100 μM diethylenetriaminepentaacetic acid, 5 mM taurine) in the presence of the compounds (20 μM in 0.3% DMSO) or 0.3% DMSO (control). Cells were activated with phorbol myristate acetate (100 nM) at 37 °C for 1 h. After incubation, cells were centrifuged at 1400 rpm for 10 min, and the supernatant was diluted threefold. Finally, 240 μL of this supernatant was added to 60 μL acetate buffer (400 mM, pH 5.4) containing NaI (100 μM) and TMB (2 mM in DMFO 10%). Taurine chloramine was quantified by TMB oxidation at 655 nm.[33] Inhibition of HOCl production was calculated as the percentage of the control (vehicle).

Human leukocyte MPO [3] = target: T1, Human leukocyte MPO; settings: read-out: previously reported IC50 for MPO; cited from earlier work
human neutrophils = experiment: MSU-induced NETosis assay (sytox green fluorescence microscopy); assay type: cell-based; settings: 20 μM compound, MSU 250 μg/mL, 90 min
Description: NETosis assay was conducted on human neutrophils adhered to lysine-coated glass coverslips as previously reported.[80] After neutrophils’ adhesion, the compounds were diluted in RPMI medium (free of phenol red and fetal bovine serum) at a final concentration of 20 μM (0.15% DMSO) and added to the cells for 15 min at 37 °C in a 5% CO2 atmosphere. Then, MSU crystals (250 μg/mL), known to induce NETosis, were added. After 90 min incubation, the medium was carefully removed, paraformaldehyde was added (500 μL at 4%), and incubated at 4 °C overnight. In the following day, paraformaldehyde was removed, and cells were washed threefold with tris-HCl buffer (20 mM, pH 7.4) and kept into the same buffer at 4 °C. Tris-HCl buffer was carefully removed, and DNA was stained by adding 500 μL SYTOX Green (500 nM diluted in tris-HCl buffer). The system was kept for 30 min at room temperature, protected from light. After staining, the coverslips were mounted over the glass slides using ProLong Diamond Antifade Mountant fixation medium. Fluorescence images were acquired in an Axiovert 200 (Zeiss) fluorescence microscope with a 20x/0.4 objective and Zeiss Filter Set 09, λex = 450–490 nm, λem = above 515 nm. Images were taken by an Axiocam HR R3 camera device.

Human leukocyte MPO [4] = target: T1, Human leukocyte MPO; experiment: MPO chlorinating activity assay (taurine chloramine/TMB); assay type: biochemical; set-up: Human leukocyte MPO (EC 1.7.1.11) was purchased from Planta Natural Products; purchased Planta Natural Products (Vienna, Austria); host or cells: human leukocytes; settings: for IC50: pH 7.4
Description: Chlorinating activity was carried out in phosphate buffer (20 mM, pH 7.4). Compounds (20 μM) were dissolved in 0.03% DMSO, MPO (10 nM), diethylenetriaminepentaacetic acid (100 μM), cetyltrimethylammonium chloride (0.03%), NaCl (140 mM), and taurine (5 mM).[31] This mixture was incubated at 37 °C for 15 min before adding 40 μM hydrogen peroxide. The reaction ran for 8 min and was then stopped by catalase (20 μg/mL). Oxidation of TMB (2 mM) (3,3,5,5-tetramethylbenzidine) by taurine chloroamine catalyzed by iodide (100 μM) was quantified at 650 nm.[33] Results were expressed as a percentage of the control (vehicle). IC50 was calculated by nonlinear regression using the Hill equation present in GraphPad Prism 5 software.

dHL-60 cells = experiment: Cellular production of HOCl, PMA-activated dHL-60 cells; assay type: cell-based, human; settings: 20 μM compound, 100 nM PMA, 1 h
Description: Human promyelocytic leukemic cells (HL-60) (BCRJ, RJ, Brazil) were cultivated in RPMI with fetal bovine serum (10%), penicillin (62 μg/mL), and streptomycin (100 μg/mL) at 37 °C in 5% CO2 atmosphere. HL-60 cells were differentiated to neutrophil-like (dHL-60) by DMSO (1.25%) during 4 days.[25]
as §1

[5] = Taurine chloroamine scavenger assay; settings: 15 min at 37 °C, TMB readout
Description: Taurine chloramine was prepared by mixing hypochlorous acid (2.81 mM) with taurine (5 mM), cetyltrimethylammonium chloride (0.03%), NaCl (140 mM), and diethylenetriaminepentaacetic acid (100 μM) in phosphate buffer (20 mM, pH 7.4). The system was kept at 37 °C for 5 min for complete chloramine taurine formation. The compounds were added to this mixture and incubated for 15 min at 37 °C. Taurine chloramine was quantified by the oxidation of TMB (2 mM) catalyzed by iodide (100 μM).[33]

MSU-induced paw edema [6] = experiment: MSU-induced paw edema, intraperitoneal treatment; assay type: in vivo; settings: for reduction of paw edema (time-dependent AUC) vs VEH + MSU: 30 mg/kg i.p.; for effect on paw edema over time: i.p. 30 min before MSU, mefenamic acid 30 mg/kg, RL6 3, 10, 30, RL7 0.3, 3, 30, ZINC9089086 3, 10, 30 mg/kg, 6 h
Description: MSU-induced edema was performed as previously described.[22] The compounds were prepared by dilution in a solution containing 0.5% Tween 80 and 5% DMSO and then resuspended in PBS prior to administration. The animals were treated intraperitoneally (i.p.) with the following substances: vehicle (VEH: 5% DMSO; 0.5% Tween 80 in PBS), mefenamic acid (a nonsteroidal anti-inflammatory drug at a dosage of 30 mg/kg), RL6 (at doses of 3, 10, and 30 mg/kg), RL7 (at doses of 0.3, 3, and 30 mg/kg), or ZINC9089086 (at doses of 3, 10, and 30 mg/kg).[31] After 30 min, the mice were anesthetized using inhaled isoflurane (2% v/v in O2). A hypodermic syringe with a 31-gauge needle (BD, Franklin Lakes, NJ, USA) was used to administer the vehicle (VEH: PBS, 30 μL) or MSU (1.5 mg/30 μL) via the intraplantar route (i.pl.), into the right hind paw (Figure 9).
(§2) Paw volume (mL) was measured at various time points, including before injection (baseline, B), […] 1, 2, 3, 4, 5, and 6 h following MSU injection using a plethysmometer (Ugo Basile, Comerio, Italy) (Figure 7). For this, the injected hind paw was immersed into the dipping solution (6 mM NaCl diluted in distilled water and added with 2 mL/L of a wetting compound provided by the manufacturer) until the ankle. The extent of edema was quantified as a change in paw volume (Δ mL) by subtracting the basal paw volume from the volume of the paw measured at each time point. To evaluate the antiedematogenic effect of orally administered MPO inhibitors (p.o.), the animals were fasted for 1 h and then treated with equimolar doses of the following substances: vehicle (VEH: 5% DMSO; 0.5% tween 80 in PBS), mefenamic acid (30 mg/kg), RL 6 (33 mg/kg), RL 7 (54 mg/kg), RL 21 (30 mg/kg), or ZINC9089086 (34 mg/kg). After 1 h, the anesthetized mice (2% isoflurane, v/v in O2) received either the vehicle (PBS, 30 μL, i.pl.) or 1.5 mg/30 μL MSU (i.pl.). The paw volume was evaluated at the same time points as previously described. The percentage of edema inhibition by the compounds was calculated discounting the paw volume of mice that received oral or intraperitoneal vehicle and PBS intraplantar (VEH + VEH).

IL-1β = experiment: Paw tissue IL-1β level after MSU (ELISA); assay type: in vivo, male C57BL/6 mice; settings: intraperitoneal pretreatment (RL6 30 mg/kg), tissue collected at 6 h
Description: (§3) The remaining part of the homogenate was treated with a solution of protease/phosphatase inhibitors (1 mM phenylmethylsulfonyl fluoride, 10 μg/mL leupeptin, and 10 μg/mL trypsin inhibitor) and centrifuged at 10,000g (10 min at 4 °C). The obtained supernatants were subjected to 1:2 dilution in PBS and subsequently used for the assessment of IL-1β and IL-6 using murine enzyme-linked immunosorbent assay kits, specifically a sandwich ELISA technique, following manufacturer’s instructions (BioLegend, CA, USA). The protein content within the samples was determined by using the Bradford method (1976). The results were quantified and expressed in pg/mg of protein (Bio-Rad, Hercules, CA, USA).[76]

MSU-induced paw edema [7] = experiment: MSU-induced paw edema, oral treatment; assay type: in vivo, male C57BL/6 mice
Description: as §2

IL-6 = experiment: Paw tissue IL-6 level after MSU (ELISA); assay type: in vivo, male C57BL/6 mice; settings: intraperitoneal pretreatment (RL6 30 mg/kg), tissue collected at 6 h
Description: as §3

[8] = system: total peroxidase activity; experiment: Paw tissue total peroxidase activity after MSU; assay type: in vivo, male C57BL/6 mice; settings: intraperitoneal pretreatment (RL6 30 mg/kg), tissue collected at 6 h
Description: After the assessment of paw edema was completed, the mice were immediately anesthetized by inhalation of 2% isoflurane mixture in oxygen (O2). Subsequently, the surface of the hind paws was collected for the measurement of total peroxidase activity, IL-6, and IL-1β. These tissue samples were then frozen using dry ice and stored at −80 °C until further analysis. The frozen tissues were later pulverized into a fine powder using liquid nitrogen and homogenized in a phosphate buffer (100 mM, pH 7.4). For the analysis of total peroxidase activity, a portion of this homogenate was mixed with hexadecyltrimethylammonium (1% HTAB, pH 6.0), vigorously vortexed, and sonicated. The resulting mixture was then centrifuged at 10,000g for 10 min, at 4 °C, and heated at 60 °C for 2 h. The sample of each supernatant was incubated with a solution containing 50 mM phosphate buffer, 0.164 mg/mL of o-dianisidine dihydrochloride, and H2O2 (0.0005%, pH 6.0). […] Each unit represents the capacity to degrade 1 μmol of H2O2 per minute.[81]

[9] = 20 μM compound, 10 nM MPO, 140 mM NaCl, 5 mM taurine, 40 μM H2O2, pH 7.4, read-out: % Inhibition (at 20 μM) Chlorinating
[10] = supplementary csv copy of Table 1, read-out: % Inhibition (Chlorinating)

| IC50 (Human leukocyte MPO [4]; 10 nM MPO, 140 mM NaCl) | inhibition at 20 µM (Human leukocyte MPO [4]; [9]) | inhibition at 20 µM (Human leukocyte MPO [4]; [10]) | Structure (SMILES) | inhibition of HOCl production in peripheral blood neutrophils [2] | inhibition of HOCl production in dHL-60 cells (dHL-60 cells) | reduction of paw edema (time-dependent AUC) vs VEH + MSU (MSU-induced paw edema [6]) | effect on paw edema over time (MSU-induced paw edema [6]) | decrease in IL-1β levels in hind paw tissue (IL-1β) | effect on IL-6 levels in hind paw tissue (IL-6) | reduction in total peroxidase activity in hind paw tissue [8] | further results |
| --- | --- | --- | --- | --- | --- | --- | --- | --- | --- | --- | --- |
| 5.25 µM | 92.3 ± 11.6% | 92.3 ± 11.6% | CCCc1cc(=O)[nH]c(=S)[nH]1 [PTU, propylthiouracil, reference compound] | most effective | most effective | – | – | – | – | – | inhibition at 20 µM (Human leukocyte MPO [1]; 20 μM compound, 100 pM MPO, 30 μM AmplexRed, 2 μM H2O2, pH 7.4, read-out: % Inhibition (at 20 μM) Peroxidatic): 94.1 ± 26.4%; inhibition at 20 µM (Human leukocyte MPO [1]; supplementary csv copy of Table 1, read-out: % Inhibition (Peroxidatic)): 94.1 ± 26.4%; IC50 (Human leukocyte MPO [3]): 3.38 µM; inhibition of MSU-induced NETosis (human neutrophils): strongly inhibited |
| 12 µM | 73 ± 19.7% | 73 ± 19.7% | COc1ccc(C(=O)Nc2ccc(-c3nnc(S)o3)cc2)cc1 [RL18] | no effect | no effect | – | – | – | – | – | % Inhibition (at 20 μM) Peroxidatic (Human leukocyte MPO [1]; 20 μM compound, 100 pM MPO, 30 μM AmplexRed, 2 μM H2O2, pH 7.4): INACTIVE; % Inhibition (Peroxidatic) (Human leukocyte MPO [1]; supplementary csv copy of Table 1): INACTIVE; scavenger activity toward taurine chloramine [5]: scavenger capacity; % Inhibition (at 20 μM) Chlorinating (Human leukocyte MPO [4]; 20 μM compound, 10 nM MPO, 140 mM NaCl, 5 mM taurine, 40 μM H2O2, pH 7.4): active against chlorinating activity only; chlorinating/peroxidatic activity inhibition ratio (Human leukocyte MPO [4]; ratio of % inhibition at 20 μM, ~1 indicates true enzyme inhibitor): high |
| – | – | – | CCc1c(O)[nH]c2nc3ccccc3n2c1=O [ZINC9089086] | – | – | 93.4% | inhibited paw edema at all of the tested doses | unable to decrease | unable to decrease | unable to decrease | inhibition of edema vs VEH + MSU (MSU-induced paw edema [7]; 34 mg/kg po): no significant inhibition |
| – | – | – | Cc1cccc(Nc2ccccc2C(=O)O)c1C [mefenamic acid, reference compound] | – | – | 91.1% | prevented paw edema for up to 4 h | unable to decrease | unable to decrease | unable to decrease | inhibition of edema vs VEH + MSU (MSU-induced paw edema [7]; 30 mg/kg, positive control of the oral experiment (Figure 8 legend: i.p.)): 77.3% |
